Measured values published in ChEMBL document CHEMBL1201862, “PubChem BioAssay data set” (2004).
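In this assay, cells in 96-well plates receive the compound at five concentrations for 48 hours. Endpoints are linearly interpolated between the surrounding concentrations. GI50: concentration for 50% inhibition of growth.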 Active and inactive are the calls of the source. Cut-off read from the data, not from the text of the source: active = GI50 up to about 1.1 µM and inactive = higher.

Experiments:
Experiment in all cases: NCI-60 cell line screen, 48 h
SK-MEL-28 = system: SK-MEL-28
RPMI-8226 = system: RPMI-8226
SF-295 = system: SF-295
SNB-75 = system: SNB-75
CAKI-1 = system: CAKI-1
XF498 = system: XF498
NCI-H23 = system: NCI-H23
LOX IMVI = system: LOX IMVI
HL-60 = system: HL-60
HCC 2998 = system: HCC 2998
COLO 205 = system: COLO 205
U-251 = system: U-251
OVCAR-5 = system: OVCAR-5
ACHN = system: ACHN
SNB-19 = system: SNB-19
IGROV-1 = system: IGROV-1
HOP-62 = system: HOP-62
SR = system: SR
MCF7 = system: MCF7
MDA-N = system: MDA-N

SMILES	GI50 (SK-MEL-28)	GI50 (RPMI-8226)	GI50 (SF-295)	GI50 (SNB-75)	GI50 (CAKI-1)	GI50 (XF498)	GI50 (NCI-H23)	GI50 (LOX IMVI)	GI50 (HL-60)	GI50 (HCC 2998)	GI50 (COLO 205)	GI50 (U-251)	GI50 (OVCAR-5)	GI50 (ACHN)	GI50 (SNB-19)	GI50 (IGROV-1)	GI50 (HOP-62)	GI50 (SR)	GI50 (MCF7)	GI50 (MDA-N)
CC1=NN(c2ccccc2)C(=O)/C1=C\c1ccc([N+](=O)[O-])cc1	36.6 µM (inactive)	23.6 µM (inactive)	31.1 µM (inactive)	25.5 µM (inactive)	27.3 µM (inactive)	16.6 µM (inactive)	27.9 µM (inactive)	21.1 µM (inactive)	23.3 µM (inactive)	25.6 µM (inactive)	17.7 µM (inactive)	41.3 µM (inactive)	24.5 µM (inactive)	31.5 µM (inactive)	30.5 µM (inactive)	29.6 µM (inactive)	–	–	–	–
O=C(c1ccccc1)c1ccc(OCCOc2ccc(Nc3ccccc3)cc2)cc1	73.3 µM (inactive)	–	27.2 µM (inactive)	15.6 µM (inactive)	47.3 µM (inactive)	16.1 µM (inactive)	46.8 µM (inactive)	> 100 µM (inactive)	–	> 100 µM (inactive)	> 100 µM (inactive)	16.6 µM (inactive)	> 100 µM (inactive)	24.3 µM (inactive)	27.7 µM (inactive)	52.2 µM (inactive)	23.9 µM (inactive)	> 100 µM (inactive)	–	–
O=C1c2ccccc2C(=O)C12CCc1ccccc12	> 100 µM (inactive)	–	> 100 µM (inactive)	40.3 µM (inactive)	> 100 µM (inactive)	> 100 µM (inactive)	> 100 µM (inactive)	> 100 µM (inactive)	23.6 µM (inactive)	> 100 µM (inactive)	> 100 µM (inactive)	> 100 µM (inactive)	–	> 100 µM (inactive)	–	> 100 µM (inactive)	> 100 µM (inactive)	–	–	–
CCOC(=O)C1=C(O)C(=O)c2c(OC)ccc(OC)c2C1=O	> 100 µM (inactive)	> 100 µM (inactive)	> 100 µM (inactive)	82.6 µM (inactive)	> 100 µM (inactive)	> 100 µM (inactive)	> 100 µM (inactive)	> 100 µM (inactive)	> 100 µM (inactive)	> 100 µM (inactive)	> 100 µM (inactive)	> 100 µM (inactive)	> 100 µM (inactive)	> 100 µM (inactive)	> 100 µM (inactive)	> 100 µM (inactive)	> 100 µM (inactive)	> 100 µM (inactive)	–	–
CCOC(=O)NC(=O)c1cn(-c2ccc(CCOC(=O)CCCCCCCCC(=O)OCCc3ccc(-n4cc(C(=O)NC(=O)OCC)c(=O)[nH]c4=O)cc3)cc2)c(=O)[nH]c1=O	> 100 µM (inactive)	> 100 µM (inactive)	> 100 µM (inactive)	–	–	> 100 µM (inactive)	> 100 µM (inactive)	> 100 µM (inactive)	> 100 µM (inactive)	> 100 µM (inactive)	> 100 µM (inactive)	49.9 µM (inactive)	> 100 µM (inactive)	> 100 µM (inactive)	59 µM (inactive)	76.4 µM (inactive)	> 100 µM (inactive)	> 100 µM (inactive)	–	–
Oc1ccc(-c2c3ccccc3c(-c3ccc(O)cc3)c3ccccc23)cc1	> 100 µM (inactive)	75.2 µM (inactive)	84.1 µM (inactive)	39.8 µM (inactive)	> 100 µM (inactive)	> 100 µM (inactive)	> 100 µM (inactive)	60.5 µM (inactive)	> 100 µM (inactive)	> 100 µM (inactive)	> 100 µM (inactive)	> 100 µM (inactive)	> 100 µM (inactive)	89.9 µM (inactive)	> 100 µM (inactive)	> 100 µM (inactive)	> 100 µM (inactive)	64.3 µM (inactive)	–	–
COc1c(CC(C)=O)c2ccccc2n1C(C)=O	> 100 µM (inactive)	> 100 µM (inactive)	> 100 µM (inactive)	> 100 µM (inactive)	> 100 µM (inactive)	> 100 µM (inactive)	> 100 µM (inactive)	–	> 100 µM (inactive)	> 100 µM (inactive)	> 100 µM (inactive)	> 100 µM (inactive)	–	> 100 µM (inactive)	> 100 µM (inactive)	> 100 µM (inactive)	> 100 µM (inactive)	> 100 µM (inactive)	–	–
C/C(CC(=O)Nc1cccc(Cl)c1C)=N\NC(N)=S	> 100 µM (inactive)	> 100 µM (inactive)	> 100 µM (inactive)	> 100 µM (inactive)	–	> 100 µM (inactive)	> 100 µM (inactive)	> 100 µM (inactive)	> 100 µM (inactive)	> 100 µM (inactive)	> 100 µM (inactive)	> 100 µM (inactive)	> 100 µM (inactive)	–	–	> 100 µM (inactive)	> 100 µM (inactive)	–	–	–
NNC(=O)CCC(=O)Nc1cc(Cl)c(Cl)cc1Cl	> 100 µM (inactive)	> 100 µM (inactive)	> 100 µM (inactive)	95.1 µM (inactive)	> 100 µM (inactive)	> 100 µM (inactive)	> 100 µM (inactive)	> 100 µM (inactive)	> 100 µM (inactive)	> 100 µM (inactive)	> 100 µM (inactive)	> 100 µM (inactive)	> 100 µM (inactive)	> 100 µM (inactive)	> 100 µM (inactive)	> 100 µM (inactive)	> 100 µM (inactive)	0.607 µM (active)	–	–
Cc1ccc(NC(=O)CC2C(=O)Nc3ccccc3S2(=O)=O)c(C)c1 (configuration not stated)	17 µM (inactive)	15.2 µM (inactive)	25.5 µM (inactive)	15.2 µM (inactive)	8.79 µM (inactive)	14.8 µM (inactive)	17.8 µM (inactive)	15 µM (inactive)	2.77 µM (inactive)	13.4 µM (inactive)	–	12.7 µM (inactive)	24.7 µM (inactive)	18 µM (inactive)	14 µM (inactive)	12.4 µM (inactive)	–	1.8 µM (inactive)	–	–
C[C@@H]1C[C@@H](O)[C@]2(O)O[C@@H]3C[C@@]4(C=O)[C@@H](CC[C@@H]5[C@@H]4CC[C@]4(C)[C@@H](C6=CC(=O)OC6)CC[C@]54O)C[C@H]3O[C@@H]2O1 [CALACTIN]	0.0288 µM (active)	0.0281 µM (active)	0.0133 µM (active)	0.0251 µM (active)	0.01 µM (active)	0.0159 µM (active)	0.00222 µM (active)	0.0148 µM (active)	0.0129 µM (active)	0.161 µM (active)	0.0221 µM (active)	0.019 µM (active)	0.0237 µM (active)	0.00283 µM (active)	0.0219 µM (active)	0.00962 µM (active)	0.00671 µM (active)	0.00275 µM (active)	0.0335 µM (active)	0.0538 µM (active)
